In PMC12399242 (Acta Pharmaceutica Sinica. B, 2025):

Key:
in vitro = settings: human, CC50
From the text: (§1) Inspired by our previous research on heteroaromatic-biphenyl-DAPYs[15], the 4-cyanophenyl group on the biphenyl moiety was replaced with a privileged 4-pyridyl group for further evaluation.

HIV-1 (IIIB) = test: microbe, parasite or virus in culture; type: cell-based; settings: for EC50: Human immunodeficiency virus 1, IIIB, MT4, WT HIV-1, protection of MT-4 cells against HIV-induced cytopathogenicity, mean ± SD, n ≥ 3; for SI (IIIB): selectivity index, ratio CC50/EC50
From the text: as §1

Structure (SMILES)	CC50 (in vitro) [nM]	EC50 (HIV-1 (IIIB)) [nM]	SI (IIIB) (HIV-1 (IIIB))
COc1cc(-c2ccc(C#N)cc2)ccc1Nc1nc(Nc2ccc(C#N)cc2)ncc1Cl [B9, 4′-((5-Chloro-2-((4-cyanophenyl)amino)pyrimidin-4-yl)amino)-3′-methoxy-[1,1′-biphenyl]-4-carbonitrile]	236000 ± 24000	104 ± 68	2261
N#Cc1ccc(Nc2ncc(F)c(Oc3ccc(-c4ccncc4)cc3Cl)n2)cc1 [A14, 4-((4-(2-Chloro-4-(pyridin-4-yl)phenoxy)-5-fluoropyrimidin-2-yl)amino)benzonitrile]	> 48000	12 ± 3.1	>3846
COc1cc(-c2ccncc2)ccc1Nc1nc(Nc2ccc(C#N)cc2)ncc1Cl [B20, 4-((5-Chloro-4-((2-methoxy-4-(pyridin-4-yl)phenyl)amino)pyrimidin-2-yl)amino)benzonitrile]	164000 ± 51000	536 ± 326	306
N#Cc1ccc(Nc2ncc(F)c(Oc3ccc(-c4ccc(C#N)cc4)cc3Cl)n2)cc1 [A2, 3′-Chloro-4′-((2-((4-cyanophenyl)amino)-5-fluoropyrimidin-4-yl)oxy)-[1,1′-biphenyl]-4-carbonitrile]	> 45000	27 ± 25	>1670
Cc1cc(-c2ccc(C#N)cc2)ccc1Oc1nc(Nc2ccc(C#N)cc2)ncc1Cl [B3, 4′-((5-Chloro-2-((4-cyanophenyl)amino)pyrimidin-4-yl)oxy)-3′-methyl-[1,1′-biphenyl]-4-carbonitrile]	> 46000	7.1 ± 1.6	>6542
Cc1cc(-c2ccncc2)ccc1Oc1nc(Nc2ccc(C#N)cc2)ncc1F [A15, 4-((5-Fluoro-4-(2-methyl-4-(pyridin-4-yl)phenoxy)pyrimidin-2-yl)amino)benzonitrile]	> 50000	11 ± 2.5	>4734
N#Cc1ccc(Nc2ncc(Cl)c(Nc3ccc(-c4ccc(C#N)cc4)cc3F)n2)cc1 [B6, 4′-((5-Chloro-2-((4-cyanophenyl)amino)pyrimidin-4-yl)amino)-3′-fluoro-[1,1′-biphenyl]-4-carbonitrile]	> 45000	12 ± 2.7	>3911
Cc1cc(-c2ccc(C#N)cc2)cc(C)c1Oc1nc(Nc2ccc(C#N)cc2)ncc1Cl [B5, 4′-((5-Chloro-2-((4-cyanophenyl)amino)pyrimidin-4-yl)oxy)-3′,5′-dimethyl-[1,1′-biphenyl]-4-carbonitrile]	39000 ± 9100	11 ± 4.2	3478
N#Cc1ccc(Nc2ncc(F)c(Oc3c(F)cc(-c4ccncc4)cc3F)n2)cc1 [A17, 4-((4-(2,6-Difluoro-4-(pyridin-4-yl)phenoxy)-5-fluoropyrimidin-2 yl)amino)benzonitrile]	> 48000	11 ± 4.1	>4396
Cc1cc(-c2ccncc2)ccc1Oc1nc(Nc2ccc(C#N)cc2)ncc1Cl [B14, 4-((5-Chloro-4-(2-methyl-4-(pyridin-4-yl)phenoxy)pyrimidin-2-yl)amino)benzonitrile]	> 48000	48 ± 22	>1005
Cc1cc(-c2ccc(C#N)cc2)cc(C)c1Oc1nc(Nc2ccc(C#N)cc2)ncc1F [A6, 4′-((2-((4-Cyanophenyl)amino)-5-fluoropyrimidin-4-yl)oxy)-3′,5′-dimethyl-[1,1′-biphenyl]-4-carbonitrile]	219000 ± 12000	7.1 ± 3.2	30,805
N#Cc1ccc(Nc2ncc(F)c(Oc3c(F)cc(-c4ccc(C#N)cc4)cc3F)n2)cc1 [A5, 4′-((2-((4-Cyanophenyl)amino)-5-fluoropyrimidin-4-yl)oxy)-3′,5′-difluoro-[1,1′-biphenyl]-4-carbonitrile]	> 45000	6.3 ± 3.2	>7143
N#Cc1ccc(Nc2ncc(Cl)c(Oc3ccc(-c4ccncc4)cc3Cl)n2)cc1 [B13, 4-((5-Chloro-4-(2-chloro-4-(pyridin-4-yl)phenoxy)pyrimidin-2-yl)amino)benzonitrile]	> 46000	6.2 ± 1.6	>7477
N#Cc1ccc(Nc2ncc(F)c(Nc3c(F)cc(-c4ccncc4)cc3F)n2)cc1 [A23, 4-((4-((2,6-Difluoro-4-(pyridin-4-yl)phenyl)amino)-5-fluoropyrimidin-2-yl)amino)benzonitrile]	21000 ± 18000	7.6 ± 1.2	–
COc1cc(-c2ccncc2)ccc1Oc1nc(Nc2ccc(C#N)cc2)ncc1Cl [B15, 4-((5-Chloro-4-(2-methoxy-4-(pyridin-4-yl)phenoxy)pyrimidin-2-yl)amino)benzonitrile]	> 47000	6.7 ± 2.3	>6897
COc1cc(-c2ccncc2)ccc1Nc1nc(Nc2ccc(C#N)cc2)ncc1F [A22, 4-((5-Fluoro-4-((2-methoxy-4-(pyridin-4-yl)phenyl)amino)pyrimidin-2-yl)amino)benzonitrile]	> 49000	8 ± 2.7	>6154

Structure (SMILES)	CC50 (in vitro) [nM]	EC50 (HIV-1 (IIIB)) [nM]	SI (IIIB) (HIV-1 (IIIB))
N#Cc1ccc(Nc2ncc(F)c(Nc3ccc(-c4ccc(C#N)cc4)cc3Cl)n2)cc1 [A8, 3′-Chloro-4′-((2-((4-cyanophenyl)amino)-5-fluoropyrimidin-4-yl)amino)-[1,1′-biphenyl]-4-carbonitrile]	> 45000	43 ± 23	>1038
N#Cc1ccc(Nc2ncc(Cl)c(Oc3ccc(-c4ccc(C#N)cc4)cc3F)n2)cc1 [B1, 4′-((5-Chloro-2-((4-cyanophenyl)amino)pyrimidin-4-yl)oxy)-3′-fluoro-[1,1′-biphenyl]-4-carbonitrile]	39000 ± 12000	8.4 ± 3.4	4572
Cc1cc(-c2ccncc2)cc(C)c1Oc1nc(Nc2ccc(C#N)cc2)ncc1F [A18, 4-((4-(2,6-Dimethyl-4-(pyridin-4-yl)phenoxy)-5-fluoropyrimidin-2-yl)amino)benzonitrile]	> 49000	56 ± 44	>868
N#Cc1ccc(Nc2ncc(Cl)c(Nc3ccc(-c4ccncc4)cc3Cl)n2)cc1 [B18, 4-((5-Chloro-4-((2-chloro-4-(pyridin-4-yl)phenyl)amino)pyrimidin-2-yl)amino)benzonitrile]	> 46000	83 ± 69	>563
N#Cc1ccc(Nc2ncc(F)c(Nc3ccc(-c4ccncc4)cc3F)n2)cc1 [A19, 4-((5-Fluoro-4-((2-fluoro-4-(pyridin-4-yl)phenyl)amino)pyrimidin-2-yl)amino)benzonitrile]	> 50000	18 ± 14	>2765
N#Cc1ccc(Nc2ncc(Cl)c(Oc3ccc(-c4ccc(C#N)cc4)cc3Cl)n2)cc1 [B2, 3′-Chloro-4′-((5-chloro-2-((4-cyanophenyl)amino)pyrimidin-4-yl)oxy)-[1,1′-biphenyl]-4-carbonitrile]	35000 ± 7300	8.7 ± 2	3949
Cc1cc(-c2ccncc2)cc(C)c1Nc1nc(Nc2ccc(C#N)cc2)ncc1Cl [B22, 4-((5-Chloro-4-((2,6-dimethyl-4-(pyridin-4-yl)phenyl)amino)pyrimidin-2-yl)amino)benzonitrile]	260000 ± 6500	8.9 ± 0.7	29,634
N#Cc1ccc(Nc2ncc(Cl)c(Nc3ccc(-c4ccc(C#N)cc4)cc3Cl)n2)cc1 [B7, 3′-Chloro-4′-((5-chloro-2-((4-cyanophenyl)amino)pyrimidin-4-yl)amino)-[1,1′-biphenyl]-4-carbonitrile]	> 273000	46 ± 13	>6026
N#Cc1ccc(Nc2ncc(Cl)c(Nc3c(F)cc(-c4ccncc4)cc3F)n2)cc1 [B21, 4-((5-Chloro-4-((2,6-difluoro-4-(pyridin-4-yl)phenyl)amino)pyrimidin-2-yl)amino)benzonitrile]	1300 ± 300	2 ± 0.7	680
N#Cc1ccc(Nc2ncc(Cl)c(Oc3ccc(-c4ccncc4)cc3F)n2)cc1 [B12, 4-((5-Chloro-4-(2-fluoro-4-(pyridin-4-yl)phenoxy)pyrimidin-2-yl)amino)benzonitrile]	> 48000	7.7 ± 1.9	>6173
Cc1cc(-c2ccc(C#N)cc2)ccc1Nc1nc(Nc2ccc(C#N)cc2)ncc1Cl [B8, 4′-((5-Chloro-2-((4-cyanophenyl)amino)pyrimidin-4-yl)amino)-3′-methyl-[1,1′-biphenyl]-4-carbonitrile]	> 46000	8.2 ± 1.6	>5556
COc1cc(-c2ccc(C#N)cc2)ccc1Nc1nc(Nc2ccc(C#N)cc2)ncc1F [A10, 4′-((2-((4-Cyanophenyl)amino)-5-fluoropyrimidin-4-yl)amino)-3′-methoxy-[1,1′-biphenyl]-4-carbonitrile]	> 46000	23 ± 18	>1961
N#Cc1ccc(Nc2ncc(Cl)c(Nc3ccc(-c4ccncc4)cc3F)n2)cc1 [B17, 4-((5-Chloro-4-((2-fluoro-4-(pyridin-4-yl)phenyl)amino)pyrimidin-2-yl)amino)benzonitrile]	> 48000	142 ± 14	>342
N#Cc1ccc(Nc2ncc(F)c(Nc3ccc(-c4ccncc4)cc3Cl)n2)cc1 [A20, 4-((4-((2-Chloro-4-(pyridin-4-yl)phenyl)amino)-5-fluoropyrimidin-2-yl)amino)benzonitrile]	> 48000	10 ± 1.7	>4819
Cc1cc(-c2ccncc2)cc(C)c1Oc1nc(Nc2ccc(C#N)cc2)ncc1Cl [B16, 4-((5-Chloro-4-(2,6-dimethyl-4-(pyridin-4-yl)phenoxy)pyrimidin-2-yl)amino)benzonitrile]	243000 ± 62000	105 ± 51	2327
Cc1cc(-c2ccncc2)ccc1Nc1nc(Nc2ccc(C#N)cc2)ncc1F [A21, 4-((5-Fluoro-4-((2-methyl-4-(pyridin-4-yl)phenyl)amino)pyrimidin-2-yl)amino)benzonitrile]	> 51000	6.1 ± 1.3	>8421
